The source of these data is US20210128536A1, “WEAKLY BASIC DRUG AND IONIC POLYMER PHARMACEUTICAL FORMULATIONS AND METHODS OF FORMATION AND ADMINISTRATION THEREOF” (DISPERSOL TECHNOLOGIES, LLC, priority 2019, published 2021).

The nature of this data set: Thermal stability by thermogravimetric analysis (TGA). The class given is physicochemical. The note with it: at relevant processing temperatures (<250° C.). The procedure:
Prior to thermokinetic processing, thermal stability of BI 667 was assessed using thermogravimetric analysis (TGA). BI 667 was considered stable (<1% mass loss on TGA) at relevant processing temperatures (<250° C.). […] (data not shown). […] Thus, a max processing temperature (and therefore ejection set point temperature) of the mixture was set at 160° C. TGA was performed on a TGA/DSC 1 (Mettler Toledo, Schwerzenbach, Switzerland). The temperature ramp utilized in this study was performed from 25 to 300° C. at a rate of 5° C./min with a nitrogen purge of 50 mL/min. Data were analyzed using STARE System.

Turning to `CS(=O)(=O)c1cc(C2(NC(=O)c3cncc4c3cnn4-c3ccc(F)cc3)CC2)ccn1` [BI 667], the “mass loss on TGA” value was under 1%.
